From US20030004128A1, “Formulatios of adenosine a1 agonists” (priority 1999, published 2003)

How the values were obtained:
[1] = system: carrageenan-induced allodynia (decrease in weight bearing on the inflamed left hind paw); experiment: Carrageenan model, weight bearing on inflamed left hind paw (dual channel weight averager); type: in vivo, rat; conditions: for % Weight on inflamed paw (Allodynia): Table (A), 3 h after carrageenan, 50% = no pain; for % Inhibition Allodynia: versus vehicle control
Protocol: (§1) Male Random Hooded rats (180-220 g) were used. The test compound or vehicle was administered 30 mins before the 2nd test compound or vehicle. The test compound and vehicles used were: (i) Compound A in 1% DMSO, 66% Peg400, 33% distilled water and (ii) nabumetone in 1% DMSO, 66% Peg400, 33% distilled water. Both test compounds were administered via the oral route. After a further 30 mins 100 ul of 2% carrageenan was injected intraplantar into the left hind paw and the animals were then returned to their cages. Three hours later behavioural testing of the carrageenan-induced decrease in weight on the inflamed left hind paw (% weight on the inflammed left paw) and associated oedema was assessed. Weight bearing was measured using the dual channel weight averager and paw oedema was assessed using a plethysmometer. The dual channel weight averager is commercially available and is described in the following abstract: Validation of the dual channel weight averager as an instrument for the measurement of inflammatory pain, N. M. Clayton et al., 1997 British Journal Pharmacol. 120, 219P
(§2) Note: Oedema is the presence of abnormally large amounts of fluid in the intercellular tissue spaces of the body and in the present example is used to provide a measure of inflammation (or anti-oedemic). Allodynia is a sensation of pain resulting from a non-injurious stimulus such as normal heat, cold or pressure on skin and in the present example the weight-bearing (allodynia) effect in used to provide a measure of analgesia.
(§3) The methodology was as described for (a) above. The test compounds and vehicles used were: (i) Compound A in 1% DMSO, 66% Peg400, 33% distilled water and (ii) Compound B in 1% DMSO, 66% Peg400, 33% distilled water. Both compounds were administered via the oral route.

[2] = system: carrageenan-induced oedema; experiment: Carrageenan model, paw oedema (plethysmometer); type: in vivo, rat; conditions: versus vehicle control
Protocol: as §1, §2, §3

[3] = Table (B), experiment (a), Compound A 0.4 mg/kg oral
[4] = Table (C), experiment (b), Compound A 0.4 mg/kg oral
[5] = Table (C), experiment (b), Compound B 3 mg/kg oral
[6] = Table (B), experiment (a), nabumetone 3 mg/kg oral

SMILES: CC(C)(C)c1nnc([C@H]2O[C@@H](n3cnc4c(Nc5ccc(Cl)cc5F)ncnc43)[C@H](O)[C@@H]2O)o1 [Compound A, (2S, 3S, 4R, 5R)-2-(5 tert-butyl-[1,3,4]oxadiazol-2-yl)-5-[6-(4-chloro-2-fluoro-phenylamino)-purin-9-yl]-tetrahydro-furan-3,4-diol]
- % Weight on inflamed paw (Allodynia) ([1]; Compound A 0.4 mg/kg oral): 25.4 ± 2.9%
- % Inhibition Allodynia [1, 3]: 17.0 ± 9.6%
- % Inhibition Allodynia [1, 4]: 47.9 ± 11.1%
- % Inhibition Oedema [2, 3]: −7.4 ± 5.7%
- % Inhibition Oedema [2, 4]: 24.9 ± 5.5%

SMILES: CCOc1ccc(-c2nn3ncccc3c2-c2ccc(S(C)(=O)=O)cc2)cc1 [Compound B, 2-(4-ethoxy-phenyl)-3-(4-methanesulfonyl-phenyl)-pyrazolo[1,5-b]pyridazine]
- % Inhibition Allodynia [1, 5]: 45.4 ± 8.9%
- % Inhibition Oedema [2, 5]: 35.8 ± 3.6%

SMILES: COc1ccc2cc(CCC(C)=O)ccc2c1 [Nabumetone, nabumetone, reference compound]
- % Weight on inflamed paw (Allodynia) ([1]; nabumetone 3 mg/kg oral): 21.6 ± 3.6%
- % Inhibition Allodynia [1, 6]: 4.3 ± 12.2%
- % Inhibition Oedema [2, 6]: −25.1 ± 4.7%
